# Source: patent US20090270342A1, “IMMUNOREGULATORY AGENT” (priority 2006, published 2009)
# What was measured:
# [1] = test system: IgA and IgG in cecal content; assay: pH, weight, IgA and IgG of cecal content (Experiment 2); format: in vivo, mice; conditions: Lactosucrose 5% (w/w) diet, four weeks
# Procedure: The effect of lactosucrose on the enhancement of gut immunity was investigated by measuring the amounts of IgA and IgG in cecal content. Mice reared for four weeks on the test diet comprising 5% (w/w) of lactosucrose or the control diet, “AIN-93G”, in Experiment 1 were sacrificed and the cecums were extirpated. Successively, the cecal content in each mouse was collected from the cecum and the pH, weight, the amounts of IgA and IgG were measured. The amounts of IgA and IgG were determined by ELISA using an anti-IgA antibody and that using an anti-IgG antibody (Mouse IgG ELISA Quantitation Kit produced by Bethyl Laboratories, Inc., Texas, USA), and expressed by mg/g-cecal content and ng/g-cecal content, respectively. The percentages in parentheses in Table 2 mean the relative values to those of the control.
# [2] = test system: cedar- and Japanese cypress-pollen disease; assay: Clinical symptom scores in cedar- and Japanese cypress-pollen allergy, double blind test (Experiment 8); format: in vivo, human
# Procedure: In Experiments 4 to 7, it was confirmed that the production of IgE and cytokines, which involves in allergic symptoms, is suppressed by ingesting lactosucrose. Based on the results, an experiment for investigating the suppressing effect of lactosucrose on the clinical symptoms caused by ceder- and Japanese cypress-pollen was carried out as follows. Volunteers who had been self-diagnosed to have allergic symptoms of nose or eyes at a season of cedar- and Japanese cypress-pollen (February to May) in the past two to three years, were recruited as subjects. An interview about the clinical symptoms of nose and eyes for the past two to three years was carried out to the applied volunteers with referencing a guideline for the diagnosis of pollinosis, “HANA ALLERGY SHINDAN GUIDELINE—TUNENSEI BIEN TO KAFUNSHO—2005 NENDO-BAN (Guideline for the diagnosis of nose allergy—chronic allergic rhinitis and pollinosis 2005 edition)”, edited by the committee for the guideline for the diagnosis of nose allergy, published by Life Science pp. 20-24 (2006). Based on the results, 40 persons estimated to be cedar- and Japanese cypress-pollen disease were selected as subjects. The subjects were divided into two groups, a test group ingesting lactosucrose (ingesting 3 g of lactosucrose every day) and a control group ingesting placebo, regarding with a score of clinical symptoms of the subjects. Then, “NYU-KA OLIGO 700”, a 76% (w/w)-solid content syrup, comprising lactosucrose, commercialized by Hayashibara Shoji Inc., Okayama, Japan, which comprises 71.5% (w/w) of lactosucrose, 13.7% (w/w) of sucrose, 7.5% (w/w) of lactose, and 7.3% (w/w) of other saccharides, on a dry solid basis, was repackaged into aluminum pillowcases with about 6 g/package (3 g of lactosucrose/package) and the resulting packages were distributed to the subjects of the lactosucrose-ingesting group. In the same manner, “CORN SUGAR A-33”, an about 75% (w/w)-solid content isomerized sugar syrup comprising sucrose, commercialized by Sanwa Cornstarch Co., Ltd., Nara, Japan, which comprises 33.5% (w/w) of sucrose, 33.7% (w/w) of glucose, and 29.2% (w/w) of fructose, on a dry solid basis, was repackaged into packages with about 6 g/package similarly as in the above and distributed to the subjects of the placebo-ingesting group. The ingestion was started at Jan. 16, 2007 (zero week), before the beginning of cedar-pollen season, and then subjects were allowed to ingest one package of the test substance at any time every day for 18 weeks. The methods for ingesting the test substance were not restricted and the subjects were permitted to ingest directly from the package or after mixing with other foods and beverages. The experiment was carried out with double blind test and the subjects were not restricted except for ingesting the test substance and were allowed to take medicines including an anti-allergic agent. For evaluating the suppression of allergic symptoms by ingesting the test substance, questionnaire survey was carried out to subjects about clinical symptoms of nose and eyes and difficulties on daily life once per week for 21 weeks, from one week before from starting the ingestion of the test substance to two weeks after of the end of the ingestion. The first questionnaire survey was carried out […]. Based on the respective result of the questionnaire of the group ingesting lactosucrose and the control group, the effects were evaluated by scores determined with regarding the suppressive effect on allergic symptoms of medicines such as an anti-allergic agent used during the test period. […] 9, 2007; the beginning of March; and the end of March; respectively, in the test area, the southern part of Okayama Prefecture. […] 27, 2007; and the end of April in the test area. Accordingly, the ingestion of the test substance in the experiment was started about three weeks before the cedar pollen season. […]
# [3] = 3 g of lactosucrose every day, after the start of ingesting the test substance
structure (smiles),measurement,setting,value
"OC[C@H]1O[C@@H](O[C@H]2[C@H](O)[C@@H](O)[C@@H](O[C@]3(CO)O[C@H](CO)[C@@H](O)[C@@H]3O)O[C@@H]2CO)[C@H](O)[C@@H](O)[C@H]1O [Lactosucrose, β-D-galactosyl-(1,4)-α-D-glucosyl-(1,2)-β-D-fructoside]",IgA in cecal content,[1],5.6 ± 1.6 mg/g
same,"IgA in cecal content, relative value to control",[1],(982%)
same,IgG in cecal content,[1],140 ± 54 ng/g
same,"IgG in cecal content, relative value to control",[1],(117%)
same,Weight of cecal content,[1],0.22 ± 0.051 g
same,"Weight of cecal content, relative value to control",[1],(169%)
same,pH of cecal content,[1],6.63 ± 0.27
same,Increase of the amount of secreted IgA in cecal content,[1]; versus control,about 10 folds
same,Generation of clinical symptoms and difficulties on daily life in comparison with the control group,"[2]; 3 g of lactosucrose every day (NYU-KA OLIGO 700), 18 weeks, human pollinosis subjects",delayed by one week
same,Score of clinical symptoms of nose compared with the control group,"[2]; 3 g of lactosucrose every day, 18 weeks, FIG. 1",kept lower value than those of the control group during four to 10 weeks
same,Score of clinical symptoms of eyes compared with the control group,"[2]; 3 g of lactosucrose every day, 18 weeks, FIG. 2",lower than those of the control group though the test period
same,Score of difficulties on daily life compared with the control group,"[2]; 3 g of lactosucrose every day, 18 weeks, FIG. 3",lower than those of the control group though the test period
same,Time at which the score of clinical symptoms of eyes reached a peak,[2]; [3],eight weeks
same,Time at which the score of clinical symptoms of nose reached a peak,[2]; [3],seven weeks
same,Time at which the score of difficulties on daily life reached a peak,[2]; [3],seven weeks
